Assay results: patent US4980474A, “Apovincaminic acid derivatives” (Taisho Pharmaceutical Co., Ltd., priority 1988, dated 1990)

Experiments:
vertebral artery = experiment: Effect on increase of blood flow, vertebral artery (anesthetized dogs); format: in vivo; details: 50 μg/kg intraarterially
Description: (§1) Effect on increase of blood flow was examined using dogs anesthetized with 5% pentbarbital sodium (30 mg/kg). The drugs [2-nitroxyethyl (+)-apovincaminate and 3-nitroxyl-n-propyl apovincaminate of the present invention and ethyl (+)-apovincaminate as control] were administered intraarterially in an amount of each 50 μg/kg, comparisons were made of the blood flows in the femoral artery, vertebral artery and common coronary artery before and after administration of the drugs, and the increase ratios of the blood flows were expressed by percent in Table 1.

femoral artery = experiment: Effect on increase of blood flow, femoral artery (anesthetized dogs); format: in vivo; details: 50 μg/kg intraarterially
Description: as §1

common coronary artery = experiment: Effect on increase of blood flow, common coronary artery (anesthetized dogs); format: in vivo; details: 50 μg/kg intraarterially
Description: as §1

[1] = system: spontaneous spindle bursts (abnormal EEG pattern in aged rats); experiment: Improvement of abnormalities of electroencephalogram (EEG) in aged rats; format: in vivo, male Wistar rats; details: 10 mg/kg intraperitoneally; for Time up to which the spontaneous spindle burst reappeared: aged rats 23-24 months; for increment of the time up to which the spontaneous spindle wave reappeared versus group treated with vitamin C only: number in parentheses
Description: Six male Wistar rats (23-24 months old) were used for each group. The electrodes were implanted on the frontal and occipital cortexes and hippocamus, and the rats were housed for 14 days for applying to the test. The rats operated were each put into an acoustically shielded box with the minimum light amount and tamed for 60 minutes while keeping the behavior free, and then the recording of EEG was started. Thirty minutes after the starting the recording of EEG, the drug (used the same as those in Experiment 2) dissolved in 1 ml of an aqueous vitamin C solution was intraperitoneally administered in the amount of 10 mg per 1 kg of the body weight of the rat. The spontaneous spindle bursts (abnormal EEG pattern in aged rats) were disappeared after the intraperitoneal administration and reappeared after a certain time. [Neurobiology of Aging, vol. 7, page 115 (1986)]. The time up to which the spontaneous spindle burst reappeared was measured. Group which received 10% aqueous vitamin C solution only was tested for comparison. Number in parentheses means the increment of the time (minutes) up to which the spontaneous spindle wave reappeared after the drug administration when compared with that of the group treated with vitamin C only.

[2] = system: basilar and femoral artery rings, NE contraction; experiment: Inhibition of basilar and femoral artery contraction induced by norepinephrine (NE); parameters: species or system Mongrel dogs; details: Canis lupus familiaris; 10^-5 M norepinephrine; Krebs-Ringer, isolated dog artery rings
Description: (§2) The test was carried out according to the method of Sonia Jancar et al described in European Journal of Pharmacology, vol. 136, page 345 (1987). Mongrel dogs were killed by anesthetization with pentbarvital (60 mg/kg), the brain was rapidly removed, and the basilar artery was dissected. The femoral artery was picked up at the same time. The isolated blood vessel was cut into rings 5 mm wide, which were soaked in 5 ml of a Krebs-Ringer solution under a resting tension of 1 g. The solution was kept with 95% oxygen and 5% carbon dioxide. To each of the solution in which the blood vessel rings were soaked were added 64 mM of potassium ion (K^+), 10^-5 M of norepinefurin (NE) and 10^-6 M of serotonine (5HT), respectively, and the resulting blood contractions were measured by FD pick up. To the blood vessel rings each was administered the drug [2-nitroxyethyl (+)-apovincaminate of the present invention and ethyl (+)-apovincaminate as control], and the concentrations (IC50) required to produce 50% inhibitions of the contractions by the administration of K^+, NE and 5TH, respectively, were measured.

[3] = system: basilar and femoral artery rings, 5HT contraction; experiment: Inhibition of basilar and femoral artery contraction induced by serotonin (5HT); parameters: species or system Mongrel dogs; details: Canis lupus familiaris; 10^-6 M serotonin; Krebs-Ringer, isolated dog artery rings
Description: as §2

[4] = system: basilar and femoral artery rings, K^+ contraction; experiment: Inhibition of basilar and femoral artery contraction induced by K^+; parameters: species or system Mongrel dogs; details: Canis lupus familiaris; 64 mM K^+; Krebs-Ringer, isolated dog artery rings
Description: as §2

| Structure (SMILES) | Increase of blood flow, Bertebral artery (vertebral artery) | Increase of blood flow, Femoral artery (femoral artery) | Increase of blood flow, Common coronary artery (common coronary artery) | activity relative to drug B (control) in terms of the increment of the time up to which the spontaneous spindle burst reappeared ([1]; aged rats) | Time up to which the spontaneous spindle burst reappeared [1] | increment of the time up to which the spontaneous spindle wave reappeared versus group treated with vitamin C only ([1]; aged rats) | IC50 [2] | IC50 [3] | IC50 [4] |
| --- | --- | --- | --- | --- | --- | --- | --- | --- | --- |
| CC[C@@]12C=C(C(=O)OCCCO[N+](=O)[O-])n3c4c(c5ccccc53)CCN(CCC1)[C@H]42 [3-Nitroxy-n-propyl (+)-apovincaminate] | 45.7% | 28.2% | 44.3% | – | – | – | – | – | – |
| CC[C@@]12C=C(C(=O)OCCO[N+](=O)[O-])n3c4c(c5ccccc53)CCN(CCC1)[C@H]42 [Drug A, 2-nitroxyethyl (+)-apovincaminate] | 72.3% | 86.8% | 71.1% | about 3 times | 41 min | 31 min | 22.3 µM | 6.02 µM | 1.17 µM |
| CCOC(=O)C1=C[C@]2(CC)CCCN3CCc4c(n1c1ccccc41)[C@@H]32 [Drug B, Ethyl (+)-apovincaminate, reference compound] | 21.8% | 14.8% | 15.5% | – | 21 min | 11 min | 63.1 µM | 100 µM | 2.5 µM |
